Source: PubChem BioAssay (NCI)
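48-hour exposure; five concentrations; linearly interpolated endpoints. At the GI50, growth is halved. TGI marks complete inhibition of growth.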

Experiments:
Assay in all cases: NCI anticancer screen, dose series, 48 h; in the data active = GI50 below about 0.43 µM; inactive = the rest
SNB-19 CNS = test system: SNB-19 CNS
T-47D breast = test system: T-47D breast
UACC-257 melanoma = test system: UACC-257 melanoma
IGROV1 ovarian = test system: IGROV1 ovarian
PC-3 prostate = test system: PC-3 prostate
A549 NSCLC = test system: A549 NSCLC
HOP-92 NSCLC = test system: HOP-92 NSCLC
MDA-MB-231 breast = test system: MDA-MB-231 breast
RXF 393 renal = test system: RXF 393 renal
NCI-H522 lung = test system: NCI-H522 lung
SK-MEL-2 melanoma = test system: SK-MEL-2 melanoma
SF-539 CNS = test system: SF-539 CNS
OVCAR-4 ovarian = test system: OVCAR-4 ovarian
SK-MEL-5 melanoma = test system: SK-MEL-5 melanoma
SN12C renal = test system: SN12C renal
U251 CNS = test system: U251 CNS
786-0 renal = test system: 786-0 renal
DU-145 prostate = test system: DU-145 prostate
HCC-2998 colon = test system: HCC-2998 colon
HOP-62 NSCLC = test system: HOP-62 NSCLC
MALME-3M melanoma = test system: MALME-3M melanoma
OVCAR-8 ovarian = test system: OVCAR-8 ovarian
COLO 205 colon = test system: COLO 205 colon
CCRF-CEM leukemia = test system: CCRF-CEM leukemia
HCT-116 colon = test system: HCT-116 colon
SK-OV-3 ovarian = test system: SK-OV-3 ovarian
OVCAR-3 ovarian = test system: OVCAR-3 ovarian
TK-10 renal = test system: TK-10 renal
UACC-62 melanoma = test system: UACC-62 melanoma
SR leukemia = test system: SR leukemia
KM12 colon = test system: KM12 colon
SF-295 CNS = test system: SF-295 CNS
M14 melanoma = test system: M14 melanoma
SW-620 colon = test system: SW-620 colon
MCF7 breast = test system: MCF7 breast
UO-31 renal = test system: UO-31 renal
MOLT-4 leukemia = test system: MOLT-4 leukemia
HCT-15 colon = test system: HCT-15 colon
HL-60(TB) leukemia = test system: HL-60(TB) leukemia
ACHN renal = test system: ACHN renal
RPMI-8226 leukemia = test system: RPMI-8226 leukemia
EKVX NSCLC = test system: EKVX NSCLC
NCI-H460 lung = test system: NCI-H460 lung
NCI-H226 lung = test system: NCI-H226 lung
HS 578T breast = test system: HS 578T breast
SF-268 CNS = test system: SF-268 CNS
LOX IMVI melanoma = test system: LOX IMVI melanoma
OVCAR-5 ovarian = test system: OVCAR-5 ovarian
NCI-H23 lung = test system: NCI-H23 lung
K-562 leukemia = test system: K-562 leukemia
CAKI-1 renal = test system: CAKI-1 renal
BT-549 breast = test system: BT-549 breast
NCI/ADR-RES ovarian = test system: NCI/ADR-RES ovarian
SK-MEL-28 melanoma = test system: SK-MEL-28 melanoma
HT29 colon = test system: HT29 colon
MDA-MB-435 = test system: MDA-MB-435
A498 renal = test system: A498 renal
SNB-75 CNS = test system: SNB-75 CNS

COc1cccc(-c2nc3sccn3c2-c2ccnc(NCCNS(=O)(=O)c3ccccc3)c2)c1
> 100 µM: TGI (SNB-19 CNS) | TGI (IGROV1 ovarian) | TGI (PC-3 prostate) | TGI (A549 NSCLC) | TGI (MDA-MB-231 breast) | TGI (RXF 393 renal) | TGI (SF-539 CNS) | TGI (OVCAR-4 ovarian) | TGI (SN12C renal) | TGI (U251 CNS) | TGI (786-0 renal) | TGI (DU-145 prostate) | TGI (HCC-2998 colon) | TGI (MALME-3M melanoma) | TGI (OVCAR-8 ovarian) | TGI (CCRF-CEM leukemia) | TGI (HCT-116 colon) | TGI (SK-OV-3 ovarian) | TGI (OVCAR-3 ovarian) | TGI (SR leukemia) | TGI (SF-295 CNS) | TGI (M14 melanoma) | TGI (SW-620 colon) | TGI (MCF7 breast) | TGI (MOLT-4 leukemia) | TGI (HCT-15 colon) | TGI (ACHN renal) | TGI (EKVX NSCLC) | TGI (NCI-H460 lung) | TGI (HS 578T breast) | TGI (SF-268 CNS) | TGI (OVCAR-5 ovarian) | TGI (K-562 leukemia) | TGI (CAKI-1 renal) | TGI (SK-MEL-28 melanoma) | TGI (MDA-MB-435)
10.5 µM: TGI (NCI-H226 lung)
8.67 µM: TGI (BT-549 breast)
57.2 µM: TGI (TK-10 renal)
25 µM: TGI (KM12 colon)
84.1 µM: TGI (LOX IMVI melanoma)
inactive: GI50 (SNB-19 CNS) 5.92 µM | GI50 (T-47D breast) 0.776 µM | GI50 (UACC-257 melanoma) 4.47 µM | GI50 (IGROV1 ovarian) 2.2 µM | GI50 (PC-3 prostate) 1.68 µM | GI50 (A549 NSCLC) 2.68 µM | GI50 (HOP-92 NSCLC) 0.596 µM | GI50 (MDA-MB-231 breast) 3.81 µM | GI50 (RXF 393 renal) 2.11 µM | GI50 (NCI-H522 lung) 2.26 µM | GI50 (SK-MEL-2 melanoma) 1.96 µM | GI50 (SF-539 CNS) 4.98 µM | GI50 (OVCAR-4 ovarian) 2.09 µM | GI50 (SK-MEL-5 melanoma) 1.53 µM | GI50 (SN12C renal) 2.91 µM | GI50 (U251 CNS) 3.9 µM | GI50 (786-0 renal) 4 µM | GI50 (DU-145 prostate) 2.98 µM | GI50 (HCC-2998 colon) 6.23 µM | GI50 (HOP-62 NSCLC) 4.24 µM | GI50 (MALME-3M melanoma) 2.79 µM | GI50 (OVCAR-8 ovarian) 2.13 µM | GI50 (COLO 205 colon) 1.87 µM | GI50 (CCRF-CEM leukemia) 1.88 µM | GI50 (HCT-116 colon) 2.73 µM | GI50 (SK-OV-3 ovarian) 5.11 µM | GI50 (OVCAR-3 ovarian) 3.15 µM | GI50 (TK-10 renal) 3.58 µM | GI50 (UACC-62 melanoma) 1.29 µM | GI50 (SR leukemia) 3.21 µM | GI50 (KM12 colon) 3.13 µM | GI50 (SF-295 CNS) 2.62 µM | GI50 (M14 melanoma) 2.84 µM | GI50 (SW-620 colon) 4.3 µM | GI50 (MCF7 breast) 3.14 µM | GI50 (UO-31 renal) 0.59 µM | GI50 (MOLT-4 leukemia) 2.03 µM | GI50 (HCT-15 colon) 2.55 µM | GI50 (HL-60(TB) leukemia) 1.71 µM | GI50 (ACHN renal) 2.22 µM | GI50 (RPMI-8226 leukemia) 1.05 µM | GI50 (EKVX NSCLC) 3.13 µM | GI50 (NCI-H460 lung) 3.47 µM | GI50 (NCI-H226 lung) 2.48 µM | GI50 (HS 578T breast) 3.7 µM | GI50 (SF-268 CNS) 3.54 µM | GI50 (LOX IMVI melanoma) 3.01 µM | GI50 (OVCAR-5 ovarian) 5.65 µM | GI50 (NCI-H23 lung) 2.64 µM | GI50 (K-562 leukemia) 1.46 µM | GI50 (CAKI-1 renal) 1.42 µM | GI50 (BT-549 breast) 2.29 µM | GI50 (NCI/ADR-RES ovarian) 2.66 µM | GI50 (SK-MEL-28 melanoma) 5.13 µM | GI50 (HT29 colon) 2.37 µM | GI50 (MDA-MB-435) 3.1 µM
4.89 µM: TGI (SK-MEL-5 melanoma)
13.3 µM: TGI (NCI-H23 lung)
5.96 µM: TGI (SK-MEL-2 melanoma)
55.2 µM: TGI (UACC-257 melanoma)
67.1 µM: TGI (HOP-62 NSCLC)
5.56 µM: TGI (HL-60(TB) leukemia)
34.3 µM: TGI (HT29 colon)
33.6 µM: TGI (HOP-92 NSCLC)
3.49 µM: TGI (UACC-62 melanoma)
3.65 µM: TGI (RPMI-8226 leukemia)
4.96 µM: TGI (T-47D breast)
27.6 µM: TGI (NCI-H522 lung)
6.65 µM: TGI (UO-31 renal)
23.9 µM: TGI (NCI/ADR-RES ovarian)
18.2 µM: TGI (COLO 205 colon)

C[C@@H]1N=C(c2ccc(Br)cc2)Nc2nc3ccccn3c2C1=O
38.2 µM: TGI (A498 renal)
> 100 µM: TGI (SNB-19 CNS) | TGI (T-47D breast) | TGI (UACC-257 melanoma) | TGI (IGROV1 ovarian) | TGI (PC-3 prostate) | TGI (A549 NSCLC) | TGI (MDA-MB-231 breast) | TGI (SK-MEL-2 melanoma) | TGI (OVCAR-4 ovarian) | TGI (SN12C renal) | TGI (U251 CNS) | TGI (786-0 renal) | TGI (DU-145 prostate) | TGI (HCC-2998 colon) | TGI (HOP-62 NSCLC) | TGI (MALME-3M melanoma) | TGI (OVCAR-8 ovarian) | TGI (CCRF-CEM leukemia) | TGI (HCT-116 colon) | TGI (SK-OV-3 ovarian) | TGI (TK-10 renal) | TGI (UACC-62 melanoma) | TGI (SR leukemia) | TGI (KM12 colon) | TGI (SW-620 colon) | TGI (MCF7 breast) | TGI (UO-31 renal) | TGI (MOLT-4 leukemia) | TGI (HCT-15 colon) | TGI (HL-60(TB) leukemia) | TGI (ACHN renal) | TGI (RPMI-8226 leukemia) | TGI (NCI-H460 lung) | TGI (NCI-H226 lung) | TGI (SF-268 CNS) | TGI (LOX IMVI melanoma) | TGI (OVCAR-5 ovarian) | TGI (NCI-H23 lung) | TGI (K-562 leukemia) | TGI (CAKI-1 renal) | TGI (BT-549 breast) | TGI (NCI/ADR-RES ovarian) | TGI (SK-MEL-28 melanoma) | TGI (HT29 colon)
7.06 µM: TGI (SNB-75 CNS)
inactive: GI50 (SNB-19 CNS) 7.45 µM | GI50 (T-47D breast) 4.62 µM | GI50 (UACC-257 melanoma) 35.2 µM | GI50 (IGROV1 ovarian) 51.9 µM | GI50 (PC-3 prostate) 5.7 µM | GI50 (A549 NSCLC) 6.7 µM | GI50 (HOP-92 NSCLC) 1.16 µM | GI50 (MDA-MB-231 breast) 6.08 µM | GI50 (RXF 393 renal) 10.2 µM | GI50 (NCI-H522 lung) 3.24 µM | GI50 (SK-MEL-2 melanoma) 15.7 µM | GI50 (SF-539 CNS) 7.98 µM | GI50 (OVCAR-4 ovarian) 17.9 µM | GI50 (SK-MEL-5 melanoma) 2.24 µM | GI50 (SN12C renal) 17.6 µM | GI50 (U251 CNS) 6.64 µM | GI50 (786-0 renal) 23.8 µM | GI50 (DU-145 prostate) 23.2 µM | GI50 (HCC-2998 colon) 21.9 µM | GI50 (HOP-62 NSCLC) 5.75 µM | GI50 (MALME-3M melanoma) 15.2 µM | GI50 (OVCAR-8 ovarian) 17 µM | GI50 (COLO 205 colon) 1.87 µM | GI50 (CCRF-CEM leukemia) 6.56 µM | GI50 (HCT-116 colon) 4.04 µM | GI50 (SK-OV-3 ovarian) 4.41 µM | GI50 (OVCAR-3 ovarian) 3.34 µM | GI50 (TK-10 renal) 21 µM | GI50 (UACC-62 melanoma) 4.35 µM | GI50 (SR leukemia) 2.42 µM | GI50 (KM12 colon) 3.39 µM | GI50 (M14 melanoma) 3.6 µM | GI50 (SW-620 colon) 3.75 µM | GI50 (MCF7 breast) 2.99 µM | GI50 (UO-31 renal) 8.11 µM | GI50 (MOLT-4 leukemia) 12.8 µM | GI50 (HCT-15 colon) 3.64 µM | GI50 (HL-60(TB) leukemia) 6.49 µM | GI50 (ACHN renal) 6.75 µM | GI50 (RPMI-8226 leukemia) 7.31 µM | GI50 (NCI-H460 lung) 3.06 µM | GI50 (NCI-H226 lung) 14.7 µM | GI50 (HS 578T breast) 2.81 µM | GI50 (A498 renal) 3.26 µM | GI50 (SF-268 CNS) 17.2 µM | GI50 (LOX IMVI melanoma) 6.34 µM | GI50 (OVCAR-5 ovarian) 23.5 µM | GI50 (NCI-H23 lung) 25.4 µM | GI50 (SNB-75 CNS) 0.703 µM | GI50 (K-562 leukemia) 4.13 µM | GI50 (CAKI-1 renal) 3.09 µM | GI50 (BT-549 breast) 5.49 µM | GI50 (NCI/ADR-RES ovarian) 7.45 µM | GI50 (SK-MEL-28 melanoma) 9.51 µM | GI50 (HT29 colon) 3.73 µM | GI50 (MDA-MB-435) 1.33 µM
52 µM: TGI (HS 578T breast)
48.2 µM: TGI (M14 melanoma)
17.8 µM: TGI (OVCAR-3 ovarian)
40.5 µM: TGI (SK-MEL-5 melanoma)
23 µM: TGI (HOP-92 NSCLC)
4.75 µM: TGI (COLO 205 colon)
18.4 µM: TGI (NCI-H522 lung)
51.7 µM: TGI (RXF 393 renal)
85.3 µM: TGI (SF-539 CNS)
7.1 µM: TGI (MDA-MB-435)
